In brackets after ≈: the same amount, converted by molar mass.
Assays:
Type in all cases: cell-based
[1] = test system: Enterococcus faecium resistant clinical isolates; assay: MIC/IC90, resistant clinical isolates of Enterococcus faecium
Procedure: (§1) Cell growth was tested using the Minimal Inhibitory Concentration (MIC) susceptibility tests by use of the microdilution broth method in accordance to the NCCLS Guidelines (NCCLS Guidelines, Methods for Dilution Antimicrobial Susceptibility Tests for Bacteria That Grow Aerobically; Approved Standard, Sixth Edition, Volume 23; Number 2). The minimum inhibitory concentration (MIC), is defined ad the lowest concentration of drug which inhibits growth of the test organism, in the sense that no visible growth is detected (total inhibition of growth). In example 2 MIC of the compounds used on fungal microorganisms was determined from the IC90 measurements according to NCCLS Guidelines.
(§2) A log phase culture of bacteria was diluted with fresh pre-warmed Mueller-Hinton medium and adjusted to a defined OD at 600 nm in order to give a final concentration of 1×10^4-5 bacteria/ml medium. The bacterial culture was transferred to microtiter-plates and culture was added to each well. Drug was added to the bacterial culture in the wells as two-fold dilution series of drug in order to give final concentrations ranging from 0.03 to 128 μg/ml. Trays were incubated at 37° C. by shaking in a robot analyzer, PowerWavex, software KC^4′ Kebo.Lab, Copenhagen, for 16 h and optical densities were measured at 600 nm during the incubation time in order to record growth curves. Wells containing bacterial culture without drug were used as controls to ensure correct inoculum size and bacterial growth during the incubation. Cultures were tested in order to detect contaminations. Each experiment was repeated in triplicate. MIC values represent the mean values of two separate triplicate experiments. Intra- and interassay variation was <5%.
Inhibition 90 (IC90) is defined as: OD responding a 90% growth inhibition. […]
Clinically relevant isolates were cultured and assayed as described above.

Gram negative sp. = assay: MIC/IC90 broad spectrum, Gram negative sp.; details: 25 strains, 20 resistant
Procedure: as §1, §2
(§3) Inhibition 90 (IC90) is defined as: OD responding a 90% growth inhibition.
(§4) A broad spectrum of bacteria were cultured and assayed as described above for susceptibility towards N-dealkyl-clopenthixol.

Streptococci = assay: MIC/IC90 broad spectrum, Streptococci; details: 30 strains, 20 resistant
Procedure: as §1, §2, §3, §4

[2] = Enterococcus faecium 16, BLR, CR

`Clc1ccc2c(c1)/C(=C/CCN1CCNCC1)c1ccccc1S2` [N-dealkyl-trans-clopenthixol, trans-1-(3-(2-chloro-thioxanthen-9-ylidene)propyl)piperazine] was tested, and the IC90 ([1]; Enterococcus faecium 11, VanA) was 0.6 µg/mL (≈ 1.68 µM), the MIC ([1]; Enterococcus faecium 11, VanA) was 1 µg/mL (≈ 2.8 µM) and the IC90 ([1]; Enterococcus faecium 12, VanA) was 0.6 µg/mL (≈ 1.68 µM). The MIC ([1]; Enterococcus faecium 12, VanA) was 1 µg/mL (≈ 2.8 µM), the IC90 ([1]; Enterococcus faecium 13, VanB) was 0.5 µg/mL (≈ 1.4 µM) and the MIC ([1]; Enterococcus faecium 13, VanB) was 1 µg/mL (≈ 2.8 µM). The IC90 ([1]; Enterococcus faecium 14, HLAR) was 0.5 µg/mL (≈ 1.4 µM), the MIC ([1]; Enterococcus faecium 14, HLAR) was 1 µg/mL (≈ 2.8 µM) and the IC90 ([1]; Enterococcus faecium 15, HLAR) was 0.5 µg/mL (≈ 1.4 µM). It also gave an MIC ([1]; Enterococcus faecium 15, HLAR) of 1 µg/mL (≈ 2.8 µM), an IC90 [1, 2] of 0.6 µg/mL (≈ 1.68 µM) and an MIC [1, 2] of 1 µg/mL (≈ 2.8 µM). For the same compound, the IC90 ([1]; Enterococcus faecium 17, VanB) was 0.5 µg/mL (≈ 1.4 µM), the MIC ([1]; Enterococcus faecium 17, VanB) was 1 µg/mL (≈ 2.8 µM) and the IC90 ([1]; Enterococcus faecium 18, VanB) was 0.6 µg/mL (≈ 1.68 µM). The MIC ([1]; Enterococcus faecium 18, VanB) was 1 µg/mL (≈ 2.8 µM), the IC90 ([1]; Enterococcus faecium 19, VanB) was 0.6 µg/mL (≈ 1.68 µM) and the MIC ([1]; Enterococcus faecium 19, VanB) was 1 µg/mL (≈ 2.8 µM). For the same compound, the MIC ([1]; Enterococcus faecium multiresistant isolate, Example 4) was 0.5 µg/mL (≈ 1.4 µM), the “MIC (mean)” value (Gram negative sp.) was 2 µg/mL (≈ 5.6 µM) and the MIC range (Gram negative sp.) was 0.5 to 2 µg/mL. The “IC90 (mean)” value (Streptococci) was 0.5 µg/mL (≈ 1.4 µM), the “MIC (mean)” value (Streptococci) was 1 µg/mL (≈ 2.8 µM) and the MIC range (Streptococci) was 0.5 to 2 µg/mL.
